Source: ChEMBL document CHEMBL5325467, “Discovery of novel hypoxia-activated, nitroimidazole constructed multi-target kinase inhibitors on the basis of AZD9291 for the treatment of human lung cancer” (Bioorg Med Chem, 2023)
Values belong to the compound of their own block, whether it stands above or below them.

Key:
[1] = target: Epidermal growth factor receptor (Homo sapiens, UniProt P00533, L858R/T790M); assay: Inhibition of EGFR L858R/T790M mutant (unknown origin) by mobility shift assay
[2] = target: T1, Epidermal growth factor receptor (Homo sapiens, UniProt P00533); assay: Inhibition of wild type EGFR (unknown origin) by mobility shift assay
T1 sequence (P00533 whole entry): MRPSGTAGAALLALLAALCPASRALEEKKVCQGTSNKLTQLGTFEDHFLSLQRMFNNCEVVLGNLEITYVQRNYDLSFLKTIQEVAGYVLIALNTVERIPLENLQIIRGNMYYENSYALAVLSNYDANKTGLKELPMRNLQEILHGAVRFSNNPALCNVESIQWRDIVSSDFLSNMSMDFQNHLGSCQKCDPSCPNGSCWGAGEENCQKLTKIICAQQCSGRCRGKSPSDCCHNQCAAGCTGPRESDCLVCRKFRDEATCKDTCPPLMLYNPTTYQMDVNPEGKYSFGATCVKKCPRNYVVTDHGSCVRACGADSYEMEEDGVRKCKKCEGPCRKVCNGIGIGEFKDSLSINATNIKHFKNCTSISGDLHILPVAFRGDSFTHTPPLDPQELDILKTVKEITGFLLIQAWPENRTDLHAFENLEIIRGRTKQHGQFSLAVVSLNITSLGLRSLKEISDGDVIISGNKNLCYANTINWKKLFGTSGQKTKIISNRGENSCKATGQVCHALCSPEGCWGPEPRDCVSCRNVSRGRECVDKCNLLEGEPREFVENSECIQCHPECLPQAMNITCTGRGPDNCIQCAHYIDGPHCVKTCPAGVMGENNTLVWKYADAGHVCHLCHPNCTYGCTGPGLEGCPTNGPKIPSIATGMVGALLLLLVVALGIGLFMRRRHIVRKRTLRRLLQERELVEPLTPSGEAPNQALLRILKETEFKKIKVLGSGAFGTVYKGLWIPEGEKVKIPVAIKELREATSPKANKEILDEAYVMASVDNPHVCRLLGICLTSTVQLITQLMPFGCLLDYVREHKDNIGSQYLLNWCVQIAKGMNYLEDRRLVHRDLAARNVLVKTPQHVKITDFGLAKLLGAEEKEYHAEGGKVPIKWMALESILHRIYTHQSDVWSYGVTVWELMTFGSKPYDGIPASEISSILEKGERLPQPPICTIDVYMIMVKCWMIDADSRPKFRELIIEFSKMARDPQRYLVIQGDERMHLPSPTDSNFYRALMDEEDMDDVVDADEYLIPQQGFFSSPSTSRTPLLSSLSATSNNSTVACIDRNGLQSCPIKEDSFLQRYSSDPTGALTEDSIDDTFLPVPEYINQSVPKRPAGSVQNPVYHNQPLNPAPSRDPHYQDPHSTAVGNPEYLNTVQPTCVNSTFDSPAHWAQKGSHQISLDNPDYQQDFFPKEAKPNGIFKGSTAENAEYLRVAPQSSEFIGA

[3] = Selectivity index, ratio of IC50 for inhibition of wild type EGFR (unknown origin) to IC50 for inhibition of EGFR L858R/T790M mutant (unknown origin)
[4] = target: Receptor-type tyrosine-protein kinase FLT3 (Homo sapiens, UniProt P36888); assay: Inhibition of FLT3 (unknown origin)
[5] = Ratio of IC50 for antiproliferative activity against human HCC827 cells harboring EGFR del19 mutant under normoxia condition to IC50 for antiproliferative activity against human HCC827 cells harboring EGFR del19 mutant under hypoxia condition; assay type: functional
[6] = target: T2, Vascular endothelial growth factor receptor 3 (Homo sapiens, UniProt P35916); assay: Inhibition of FLT4 (unknown origin)
T2 sequence (P35916 whole entry): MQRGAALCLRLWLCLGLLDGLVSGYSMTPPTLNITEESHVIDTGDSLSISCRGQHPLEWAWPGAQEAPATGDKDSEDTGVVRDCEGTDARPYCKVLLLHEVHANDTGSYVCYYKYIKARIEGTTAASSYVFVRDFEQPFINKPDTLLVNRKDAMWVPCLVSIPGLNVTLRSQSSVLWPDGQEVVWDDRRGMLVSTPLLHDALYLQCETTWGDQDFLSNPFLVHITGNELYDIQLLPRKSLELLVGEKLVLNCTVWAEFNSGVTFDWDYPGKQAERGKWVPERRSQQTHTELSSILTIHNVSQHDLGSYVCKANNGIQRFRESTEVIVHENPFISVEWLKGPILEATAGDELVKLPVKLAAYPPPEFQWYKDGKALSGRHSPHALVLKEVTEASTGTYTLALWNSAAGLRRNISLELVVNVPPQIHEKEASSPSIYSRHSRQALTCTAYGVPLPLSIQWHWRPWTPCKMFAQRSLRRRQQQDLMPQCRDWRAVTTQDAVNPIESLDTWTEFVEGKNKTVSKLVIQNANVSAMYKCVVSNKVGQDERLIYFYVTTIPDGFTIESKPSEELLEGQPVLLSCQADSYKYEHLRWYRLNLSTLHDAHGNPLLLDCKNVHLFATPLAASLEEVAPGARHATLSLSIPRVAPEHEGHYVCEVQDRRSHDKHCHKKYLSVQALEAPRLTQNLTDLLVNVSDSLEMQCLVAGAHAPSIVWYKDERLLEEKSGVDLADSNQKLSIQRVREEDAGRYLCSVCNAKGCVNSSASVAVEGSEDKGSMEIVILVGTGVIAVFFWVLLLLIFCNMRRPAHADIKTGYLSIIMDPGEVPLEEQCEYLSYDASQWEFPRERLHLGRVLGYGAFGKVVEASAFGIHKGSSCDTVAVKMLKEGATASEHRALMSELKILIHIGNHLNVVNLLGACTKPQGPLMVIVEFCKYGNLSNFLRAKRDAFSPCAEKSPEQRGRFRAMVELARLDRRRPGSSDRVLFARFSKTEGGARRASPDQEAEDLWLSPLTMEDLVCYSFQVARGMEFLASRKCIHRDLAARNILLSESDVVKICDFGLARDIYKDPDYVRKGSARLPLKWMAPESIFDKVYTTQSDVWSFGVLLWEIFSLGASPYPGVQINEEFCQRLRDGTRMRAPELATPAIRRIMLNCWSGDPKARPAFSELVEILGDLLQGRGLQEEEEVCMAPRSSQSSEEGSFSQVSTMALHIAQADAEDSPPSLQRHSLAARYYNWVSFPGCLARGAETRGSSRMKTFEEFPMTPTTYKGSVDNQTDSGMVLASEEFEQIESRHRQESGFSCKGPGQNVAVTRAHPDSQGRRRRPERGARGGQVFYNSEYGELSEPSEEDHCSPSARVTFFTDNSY

[7] = target: Mitogen-activated protein kinase 1 (Homo sapiens) (UniProt P28482); assay: Inhibition of ERK2 (unknown origin) at 1 uM relative to control
[8] = target: Tyrosine-protein kinase receptor UFO (Homo sapiens) (UniProt P30530); assay: Inhibition of AXL (unknown origin) at 1 uM relative to control
[9] = Reductive activation in PBS at pH 7.4 assessed as A14-1 metabolite formation at 1 uM incubated for 30 mins in presence of cysteine, NADPH and nitroreductase under N2 condition by MS/MS analysis; assay type: ADME; conditions: buffer, pH 7.4, 0.5 h
[10] = target: Receptor-type tyrosine-protein kinase FLT3 (Homo sapiens) (UniProt P36888); assay: Inhibition of FLT3 (unknown origin) at 1 uM relative to control
NCI-H1975 [11] = assay: Antiproliferative activity against human NCI-H1975 cells harboring EGFR L858R/T790M mutant assessed as inhibition of cell growth incubated for 72 hrs under hypoxia condition by SRB assay; assay type: functional, cell-based; conditions: NCI-H1975, 72 h
HCC827 [12] = assay: Antiproliferative activity against human HCC827 cells harboring EGFR del19 mutant assessed as inhibition of cell growth incubated for 72 hrs under hypoxia condition by SRB assay; assay type: functional, cell-based; conditions: HCC827, 72 h
[13] = target: Tyrosine-protein kinase ITK/TSK (Homo sapiens) (UniProt Q08881); assay: Inhibition of ITK (unknown origin) at 1 uM relative to control
[14] = target: High affinity nerve growth factor receptor (Homo sapiens) (UniProt P04629); assay: Inhibition of TRKA (unknown origin) at 1 uM relative to control
[15] = target: Tyrosine-protein kinase JAK3 (Homo sapiens) (UniProt P52333); assay: Inhibition of JAK3 (unknown origin) at 1 uM relative to control
[16] = target: Hepatocyte growth factor receptor (Homo sapiens) (UniProt P08581); assay: Inhibition of MET (unknown origin) at 1 uM relative to control
[17] = target: Proto-oncogene tyrosine-protein kinase receptor Ret (Homo sapiens) (UniProt P07949); assay: Inhibition of RET (unknown origin) at 1 uM relative to control
NCI-H1975 [18] = assay: Antiproliferative activity against human NCI-H1975 cells harboring EGFR L858R/T790M mutant assessed as inhibition of cell growth incubated for 72 hrs under normoxia condition by SRB assay; assay type: functional, cell-based; conditions: NCI-H1975, 72 h
[19] = target: 3-phosphoinositide-dependent protein kinase 1 (Homo sapiens) (UniProt O15530); assay: Inhibition of PDK1 (unknown origin) at 1 uM relative to control
[20] = target: Tyrosine-protein kinase SYK (Homo sapiens) (UniProt P43405); assay: Inhibition of SYK (unknown origin) at 1 uM relative to control
[21] = target: Fibroblast growth factor receptor 1 (Homo sapiens) (UniProt P11362); assay: Inhibition of FGFR1 (unknown origin) at 1 uM relative to control
Homo sapiens = organism: Homo sapiens; assay: Inhibition of ABL (unknown origin) at 1 uM relative to control
[22] = target: Proto-oncogene tyrosine-protein kinase Src (Homo sapiens) (UniProt P12931); assay: Inhibition of SRC (unknown origin) at 1 uM relative to control
[23] = Ratio of IC50 for antiproliferative activity against human NCI-H1975 cells harboring EGFR L858R/T790M mutant under normoxia condition to IC50 for antiproliferative activity against human NCI-H1975 cells harboring EGFR L858R/T790M mutant under hypoxia condition; assay type: functional
[24] = (§1) Reductive activation in PBS at pH 7.4 assessed as 2-amino-3-[2-amino-5-[amino(carboxy)methyl]sulfanyl-1-[2-[2-[2-methoxy-5-[[4-(1-methylindol-3-yl)pyrimidin-2-yl]amino]phenoxy]ethoxy]ethyl]imidazol-4-yl]sulfanyl-propanoic acid metabolite formation at 1 uM incubated for 30 mins in presence of cysteine, NADPH and nitroreductase under normoxia condition by MS/MS analysis; assay type: ADME; conditions: buffer, pH 7.4, 0.5 h
[25] = tested on: Epidermal growth factor receptor (Homo sapiens), P00533 [L858R,T790M,C797S]; assay: Inhibition of EGFR L858R/T790M/C797S triple mutant (unknown origin) at 1 uM relative to control
[26] = target: ALK tyrosine kinase receptor (Homo sapiens) (UniProt Q9UM73); assay: Inhibition of ALK (unknown origin) at 1 uM relative to control
[27] = Reductive activation in PBS at pH 7.4 assessed as A14-1 metabolite formation at 1 uM incubated for 30 mins in presence of cysteine, NADPH and nitroreductase under hypoxia condition by MS/MS analysis; assay type: ADME; conditions: buffer, pH 7.4, 0.5 h
[28] = target: RAC-alpha serine/threonine-protein kinase (Homo sapiens) (UniProt P31749); assay: Inhibition of AKT1 (unknown origin) at 1 uM relative to control
[29] = target: T3, Tyrosine-protein kinase JAK2 (Homo sapiens, UniProt O60674); assay: Inhibition of JAK2 (unknown origin) at 1 uM relative to control
T3 sequence (O60674 whole entry): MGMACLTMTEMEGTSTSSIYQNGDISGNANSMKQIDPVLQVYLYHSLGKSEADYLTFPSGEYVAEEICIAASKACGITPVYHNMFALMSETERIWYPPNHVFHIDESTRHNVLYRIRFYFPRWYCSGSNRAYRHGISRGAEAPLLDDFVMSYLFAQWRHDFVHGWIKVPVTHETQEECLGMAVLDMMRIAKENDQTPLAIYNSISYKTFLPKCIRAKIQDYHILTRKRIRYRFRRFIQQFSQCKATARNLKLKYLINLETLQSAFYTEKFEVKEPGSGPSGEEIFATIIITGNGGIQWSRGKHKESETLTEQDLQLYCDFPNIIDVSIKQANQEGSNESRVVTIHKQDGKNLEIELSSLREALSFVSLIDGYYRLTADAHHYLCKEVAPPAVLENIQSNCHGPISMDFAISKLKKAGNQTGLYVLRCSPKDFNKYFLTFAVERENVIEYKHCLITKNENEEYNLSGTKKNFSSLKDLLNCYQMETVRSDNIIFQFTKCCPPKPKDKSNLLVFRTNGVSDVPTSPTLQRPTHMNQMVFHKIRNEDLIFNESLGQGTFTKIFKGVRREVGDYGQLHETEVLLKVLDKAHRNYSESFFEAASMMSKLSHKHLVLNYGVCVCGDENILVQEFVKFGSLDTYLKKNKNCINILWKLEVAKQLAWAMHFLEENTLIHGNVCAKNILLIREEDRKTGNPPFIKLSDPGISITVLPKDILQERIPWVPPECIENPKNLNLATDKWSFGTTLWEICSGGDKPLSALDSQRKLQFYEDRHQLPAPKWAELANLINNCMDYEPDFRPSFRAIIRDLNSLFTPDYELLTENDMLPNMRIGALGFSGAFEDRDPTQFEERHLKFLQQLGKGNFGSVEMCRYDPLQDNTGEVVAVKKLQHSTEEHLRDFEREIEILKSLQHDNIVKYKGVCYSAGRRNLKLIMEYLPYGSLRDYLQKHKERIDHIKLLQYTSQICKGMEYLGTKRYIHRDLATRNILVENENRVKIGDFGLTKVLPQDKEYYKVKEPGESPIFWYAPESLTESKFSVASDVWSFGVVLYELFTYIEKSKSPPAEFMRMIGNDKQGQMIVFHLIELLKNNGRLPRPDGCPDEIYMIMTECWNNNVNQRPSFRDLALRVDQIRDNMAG

[30] = Reductive activation in PBS at pH 7.4 assessed as hydroxylamine intermediate formation at 1 uM incubated for 30 mins in presence of cysteine, NADPH and nitroreductase under hypoxia condition by MS/MS analysis; conditions: buffer, pH 7.4, 0.5 h
[31] = target: MAP kinase-activated protein kinase 2 (Homo sapiens) (UniProt P49137); assay: Inhibition of MAPKAPK2 (unknown origin) at 1 uM relative to control
[32] = target: T3, Tyrosine-protein kinase JAK2; assay: Inhibition of JAK2 (unknown origin)
[33] = tested on: Serine/threonine-protein kinase B-raf (Homo sapiens), P15056 [V600E]; assay: Inhibition of BRAF V600E mutant (unknown origin) at 1 uM relative to control
[34] = target: Receptor tyrosine-protein kinase erbB-2 (Homo sapiens) (UniProt P04626); assay: Inhibition of HER2 (unknown origin) at 1 uM relative to control
[35] = target: T4, Platelet-derived growth factor receptor alpha (Homo sapiens, UniProt P16234); assay: Inhibition of PDGFRalpha (unknown origin) at 1 uM relative to control
[36] = target: T4, Platelet-derived growth factor receptor alpha; assay: Inhibition of PDGFRalpha (unknown origin)
[37] = target: Mast/stem cell growth factor receptor Kit (Homo sapiens) (UniProt P10721); assay: Inhibition of KIT (unknown origin) at 1 uM relative to control
[38] = target: Tyrosine-protein kinase BTK (Homo sapiens) (UniProt Q06187); assay: Inhibition of BTK (unknown origin) at 1 uM relative to control
HCC827 [39] = assay: Antiproliferative activity against human HCC827 cells harboring EGFR del19 mutant assessed as inhibition of cell growth incubated for 72 hrs under normoxia condition by SRB assay; assay type: functional, cell-based; conditions: HCC827, 72 h
[40] = target: T5, Proto-oncogene tyrosine-protein kinase ROS (Homo sapiens, UniProt P08922); assay: Inhibition of ROS1 (unknown origin)
[41] = target: T2, Vascular endothelial growth factor receptor 3; assay: Inhibition of FLT4 (unknown origin) at 1 uM relative to control
[42] = target: Vascular endothelial growth factor receptor 2 (Homo sapiens) (UniProt P35968); assay: Inhibition of KDR (unknown origin) at 1 uM relative to control
[43] = Reductive activation in PBS at pH 7.4 assessed as A14-1 metabolite formation at 1 uM incubated for 30 mins in presence of cysteine, NADPH and nitroreductase under normoxia condition by MS/MS analysis; assay type: ADME; conditions: buffer, pH 7.4, 0.5 h
[44] = target: Mitogen-activated protein kinase 10 (Homo sapiens) (UniProt P53779); assay: Inhibition of JNK3 (unknown origin) at 1 uM relative to control
[45] = target: T5, Proto-oncogene tyrosine-protein kinase ROS; assay: Inhibition of ROS1 (unknown origin) at 1 uM relative to control
[46] = as §1, with “N2” for “normoxia”; assay type: ADME; conditions: buffer, pH 7.4, 0.5 h
[47] = target: Cyclin-dependent kinase 4/cyclin D1 (Homo sapiens) (UniProt P11802+P24385); assay: Inhibition of CDK4/CyclinD1 (unknown origin) at 1 uM relative to control; assay type: protein-complex assay
[48] = as §1, with “hypoxia” for “normoxia”; assay type: ADME; conditions: buffer, pH 7.4, 0.5 h
[49] = target: T1, Epidermal growth factor receptor; assay: Inhibition of EGFR (unknown origin) at 1 uM relative to control
[50] = target: Focal adhesion kinase 1 (Homo sapiens) (UniProt Q05397); assay: Inhibition of FAK (unknown origin) at 1 uM relative to control

Epidermal growth factor receptor (Homo sapiens, UniProt P00533, L858R/T790M), sequence (P00533 25-1210 T790M/L858R limits assumed): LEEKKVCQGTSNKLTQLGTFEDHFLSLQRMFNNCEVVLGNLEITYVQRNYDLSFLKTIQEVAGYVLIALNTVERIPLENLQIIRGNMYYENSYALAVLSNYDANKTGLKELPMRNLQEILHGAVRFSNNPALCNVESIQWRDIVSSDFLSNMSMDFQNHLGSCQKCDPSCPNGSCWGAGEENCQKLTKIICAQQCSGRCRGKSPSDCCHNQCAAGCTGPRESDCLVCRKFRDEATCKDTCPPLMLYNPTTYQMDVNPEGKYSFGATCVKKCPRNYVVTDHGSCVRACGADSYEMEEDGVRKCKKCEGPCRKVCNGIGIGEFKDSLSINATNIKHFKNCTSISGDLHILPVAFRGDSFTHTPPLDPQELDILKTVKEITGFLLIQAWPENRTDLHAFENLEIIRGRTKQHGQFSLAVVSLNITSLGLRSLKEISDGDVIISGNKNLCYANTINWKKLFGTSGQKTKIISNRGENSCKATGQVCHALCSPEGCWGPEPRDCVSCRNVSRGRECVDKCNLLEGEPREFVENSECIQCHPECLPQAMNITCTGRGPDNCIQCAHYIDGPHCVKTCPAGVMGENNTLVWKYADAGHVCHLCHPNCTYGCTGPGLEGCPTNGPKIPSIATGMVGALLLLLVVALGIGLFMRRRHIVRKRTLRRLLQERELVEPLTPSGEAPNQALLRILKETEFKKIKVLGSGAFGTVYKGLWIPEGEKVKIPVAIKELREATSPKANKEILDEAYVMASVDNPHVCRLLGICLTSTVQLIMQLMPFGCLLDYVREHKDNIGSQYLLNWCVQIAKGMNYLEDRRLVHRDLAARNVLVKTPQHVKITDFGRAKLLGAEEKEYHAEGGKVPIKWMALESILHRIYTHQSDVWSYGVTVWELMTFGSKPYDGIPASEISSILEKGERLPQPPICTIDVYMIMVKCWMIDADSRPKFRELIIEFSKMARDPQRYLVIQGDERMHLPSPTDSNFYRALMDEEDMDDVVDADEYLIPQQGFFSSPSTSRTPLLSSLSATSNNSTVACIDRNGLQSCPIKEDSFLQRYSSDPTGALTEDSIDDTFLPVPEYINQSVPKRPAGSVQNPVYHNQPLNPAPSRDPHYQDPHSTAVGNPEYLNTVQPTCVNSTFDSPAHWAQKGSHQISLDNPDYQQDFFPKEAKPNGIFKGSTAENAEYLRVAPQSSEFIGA

SMILES: Cn1cc(-c2ccnc(Nc3cccc(COCCOCCn4ccnc4[N+](=O)[O-])c3)n2)c2ccccc21
IC50 [1]: 4030 nM

SMILES: COc1ccc(Nc2nccc(-c3cn(C)c4ccccc34)n2)cc1OCCOCCn1ccnc1[N+](=O)[O-]
IC50 [4]: 108 nM
Ratio IC50 [5]: 4.75
IC50 [6]: 227 nM
inhibition [7]: 32.4%
inhibition [8]: 44.3%
Drug metabolism [9]: Metabolite_Detected
inhibition [10]: 90.5%
IC50 [1]: 177 nM
IC50 (NCI-H1975 [11]): 4.66 nM
IC50 (HCC827 [12]): 5.26 nM
inhibition [13]: 27.9%
inhibition [14]: 29%
inhibition [15]: 43.2%
inhibition [16]: 26.6%
inhibition [17]: -0.41%
IC50 (NCI-H1975 [18]): 26.2 nM
inhibition [19]: 8%
inhibition [20]: 17%
inhibition [21]: -7.07%
inhibition (Homo sapiens): 23.9%
inhibition [22]: 36.5%
IC50 [2]: 1570 nM
Ratio IC50 [23]: 5.63
Drug metabolism [24]: Metabolite_Notdetected
inhibition [25]: 50.9%
inhibition [26]: 42.7%
Drug metabolism [27]: Metabolite_Detected
inhibition [28]: 11.5%
inhibition [29]: 79.2%
Drug metabolism [30]: Metabolite_Detected
inhibition [31]: 17.4%
IC50 [32]: 30.9 nM
inhibition [33]: 65.4%
inhibition [34]: 11.8%
inhibition [35]: 88.2%
IC50 [36]: 42.5 nM
inhibition [37]: 38.1%
inhibition [38]: 27.4%
IC50 (HCC827 [39]): 25 nM
IC50 [40]: 107 nM
inhibition [41]: 85.7%
inhibition [42]: 50%
Drug metabolism [43]: Metabolite_Notdetected
inhibition [44]: 62.7%
inhibition [45]: 84.7%
Drug metabolism [46]: Metabolite_Detected
inhibition [47]: 8.02%
Drug metabolism [48]: Metabolite_Detected
inhibition [49]: 34.8%
inhibition [50]: 9%

SMILES: Cc1cc(Nc2nccc(-c3cn(C)c4ccccc34)n2)ccc1OCCOCCn1ccnc1[N+](=O)[O-]
IC50 [1]: 456 nM
IC50 [2]: 9200 nM
Ratio IC50 [3]: 20.2

SMILES: Cn1cc(-c2ccnc(Nc3cc(OCCOCCn4ccnc4[N+](=O)[O-])ccc3F)n2)c2ccccc21
Ratio IC50 [5]: 5.11
IC50 [1]: 199 nM
IC50 (NCI-H1975 [11]): 7.59 nM
IC50 (HCC827 [12]): 6.28 nM
IC50 (NCI-H1975 [18]): 31 nM
IC50 [2]: 7660 nM
Ratio IC50 [23]: 4.08
IC50 (HCC827 [39]): 32.1 nM

Second part, the compound after the results:

IC50 [1]: 818 nM
SMILES: Cn1cc(-c2ccnc(Nc3cccc(C(=O)NCCOCCn4ccnc4[N+](=O)[O-])c3)n2)c2ccccc21

IC50 [1]: 233 nM
IC50 [2]: 1880 nM
Ratio IC50 [3]: 8.08
SMILES: Cn1cc(-c2ccnc(Nc3cccc(OCCCCn4cnc([N+](=O)[O-])c4)c3)n2)c2ccccc21

IC50 [1]: 227 nM
IC50 [2]: 3570 nM
Ratio IC50 [3]: 15.7
SMILES: Cn1cc(-c2ccnc(Nc3cccc(OCCCCn4ccnc4[N+](=O)[O-])c3)n2)c2ccccc21

IC50 [1]: 442 nM
IC50 [2]: 4000 nM
Ratio IC50 [3]: 9.05
SMILES: Cn1cc(-c2ccnc(Nc3cccc(OCCOCCn4ccnc4[N+](=O)[O-])c3)n2)c2ccccc21
